Reference: patent publication US12539292B2, “BRM targeting compounds and associated methods of use” (Arvinas Operations, Inc., priority 2018, dated 2026)
Read-outs that look alike come from different tables or passages of the source.

Target: T1, BRM (Homo sapiens, UniProt P51531)
T1 construct: In-Cell Western Screen of BRM Degradation in SW1573 Cells; endogenous in cells; host or cells: SW1573
Assay: In-cell Western screen of BRM degradation in SW1573 cells (Dmax and DC50)
Assay type: cell-based
In short: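 SW1573, overnight cpd exposure (18-20 h), 0.1% DMSO final. PFA fix, 0.5% Triton permeabilization, block; IR secondaries at 800/680 nm. Odyssey read → Dmax, DC50.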

[1] = BRM degradation, SW1573 cells, read-out: DC50
[2] = BRM degradation, SW1573 cells, when tested at the top concentration of between 0.3 and 10 μM, read-out: Dmax (%) (% degraded)
[3] = SW1573, % degraded, when tested at the top concentration of between 0.3 and 10 μM, read-out: BRM Dmax (%)
[4] = target protein degradation, read-out: BRM DC50

T1 sequence (P51531 whole entry): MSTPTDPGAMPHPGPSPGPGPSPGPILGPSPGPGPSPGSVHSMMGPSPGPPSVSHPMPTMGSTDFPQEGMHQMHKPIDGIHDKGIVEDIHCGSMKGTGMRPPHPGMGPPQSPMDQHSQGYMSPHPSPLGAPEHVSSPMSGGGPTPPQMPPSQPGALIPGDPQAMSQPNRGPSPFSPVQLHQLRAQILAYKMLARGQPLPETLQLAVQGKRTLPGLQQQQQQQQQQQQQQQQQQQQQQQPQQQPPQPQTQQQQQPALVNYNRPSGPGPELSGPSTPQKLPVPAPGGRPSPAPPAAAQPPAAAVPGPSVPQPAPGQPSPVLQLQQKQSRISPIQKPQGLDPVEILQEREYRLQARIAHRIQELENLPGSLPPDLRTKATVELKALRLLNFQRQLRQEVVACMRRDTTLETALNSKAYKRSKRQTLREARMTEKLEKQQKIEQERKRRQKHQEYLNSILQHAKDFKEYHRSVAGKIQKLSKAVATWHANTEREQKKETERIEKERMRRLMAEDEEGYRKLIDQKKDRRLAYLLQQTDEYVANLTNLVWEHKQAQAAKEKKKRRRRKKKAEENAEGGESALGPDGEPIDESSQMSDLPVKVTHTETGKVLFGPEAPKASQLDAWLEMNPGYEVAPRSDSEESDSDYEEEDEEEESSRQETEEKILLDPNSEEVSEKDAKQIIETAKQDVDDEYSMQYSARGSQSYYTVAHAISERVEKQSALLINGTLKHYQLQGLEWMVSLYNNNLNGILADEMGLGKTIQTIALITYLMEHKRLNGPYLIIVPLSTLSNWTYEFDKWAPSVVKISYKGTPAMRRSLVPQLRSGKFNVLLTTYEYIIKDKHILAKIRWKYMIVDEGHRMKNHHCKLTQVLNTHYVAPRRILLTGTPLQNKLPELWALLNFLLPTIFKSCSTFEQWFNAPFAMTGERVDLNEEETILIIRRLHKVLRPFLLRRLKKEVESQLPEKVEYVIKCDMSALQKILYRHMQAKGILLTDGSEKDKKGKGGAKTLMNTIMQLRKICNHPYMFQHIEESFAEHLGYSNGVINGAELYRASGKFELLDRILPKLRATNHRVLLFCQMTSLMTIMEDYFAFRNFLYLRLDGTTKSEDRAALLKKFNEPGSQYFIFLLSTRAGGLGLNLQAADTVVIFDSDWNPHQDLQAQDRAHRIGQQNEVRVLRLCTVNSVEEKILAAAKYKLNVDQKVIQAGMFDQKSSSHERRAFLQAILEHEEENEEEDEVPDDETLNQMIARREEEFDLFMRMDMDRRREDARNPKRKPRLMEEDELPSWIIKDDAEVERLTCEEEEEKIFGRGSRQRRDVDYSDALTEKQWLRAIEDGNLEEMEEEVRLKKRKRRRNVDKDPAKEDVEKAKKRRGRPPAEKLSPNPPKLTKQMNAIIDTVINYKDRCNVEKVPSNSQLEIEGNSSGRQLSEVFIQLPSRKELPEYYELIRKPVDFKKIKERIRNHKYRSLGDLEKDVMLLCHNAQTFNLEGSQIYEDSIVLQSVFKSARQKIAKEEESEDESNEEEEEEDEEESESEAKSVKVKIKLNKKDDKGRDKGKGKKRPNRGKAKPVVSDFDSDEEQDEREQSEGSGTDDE

Cc1ncsc1-c1ccc([C@H](C)NC(=O)[C@@H]2C[C@@H](O)CN2C(=O)[C@H](c2onc(OCCN3CCC(O[C@H]4C[C@H](Oc5cc(N6C7CCC6CN(c6cc(-c8ccccc8O)nnc6N)C7)ccn5)C4)CC3)c2F)C(C)C)cc1 [compound 208, (2S,4R)-1-((2S)-2-(3-(2-(4-((1r,3S)-3-((4-(3-(3-amino-6-(2-hydroxyphenyl)pyridazin-4-yl)-3,8-diazabicyclo[3.2.1]octan-8-yl)pyridin-2-yl)oxy)cyclobutoxy)piperidin-1-yl)ethoxy)-4-fluoroisoxazol-5-yl)-3-methylbutanoyl)-4-hydroxy-N-((S)-1-(4-(4-methylthiazol-5-yl)phenyl)ethyl)pyrrolidine-2-carboxamide]
DC50 [1]: > 30 nM
Dmax (BRM degradation, SW1573 cells, tested at the top concentration of between 0.3 and 10 μM, read-out: Dmax (%) (% degraded)): > 75%

Cc1ncsc1-c1ccc(CNC(=O)[C@@H]2C[C@@H](O)CN2C(=O)[C@@H](NC(=O)CN2CCN(CCOCCOCCCc3cc(N4C5CCC4CN(c4cc(-c6ccccc6O)nnc4N)C5)ccn3)CC2)C(C)(C)C)cc1 [compound 45, (2S,4R)-1-[(2S)-2-[2-[4-(2-[2-[3-(4-[3-[3-amino-6-(2-hydroxyphenyl)pyridazin-4-yl]-3,8-diazabicyclo[3.2.1]octan-8-yl]pyridin-2-yl)propoxy]ethoxy]ethyl)piperazin-1-yl]acetamido]-3,3-dimethylbutanoyl]-4-hydroxy-N-[[4-(4-methyl-1,3-thiazol-5-yl)phenyl]methyl]pyrrolidine-2-carboxamide]
DC50 [1]: > 30 nM
Dmax [2]: > 75%

Cc1ncsc1-c1ccc([C@H](C)NC(=O)C2C[C@@H](O)CN2C(=O)[C@@H](c2onc(OCCN3CCC(O[C@H]4C[C@H](Oc5cc(N6C7CCC6CN(c6cc(-c8ccccc8O)nnc6N)C7)ccn5)C4)CC3)c2Cl)C(C)C)cc1 (stereo partly drawn) [compound 362, (2S,4R)-1-((2R)-2-(3-(2-(4-((1r,3R)-3-((4-(3-(3-amino-6-(2-hydroxyphenyl)pyridazin-4-yl)-3,8-diazabicyclo[3.2.1]octan-8-yl)pyridin-2-yl)oxy)cyclobutoxy)piperidin-1-yl)ethoxy)-4-chloroisoxazol-5-yl)-3-methylbutanoyl)-4-hydroxy-N-((S)-1-(4-(4-methylthiazol-5-yl)phenyl)ethyl)pyrrolidine-2-carboxamide]
Dmax [3]: > 75%
DC50 [4]: < 2.5 nM

Cc1ncsc1-c1ccc([C@H](C)NC(=O)[C@@H]2C[C@@H](O)CN2C(=O)[C@H](c2cc(N3CCC(C(C)N4CCC(O[C@H]5C[C@H](Oc6cc(N7C8CCC7CN(c7cc(-c9ccccc9O)nnc7N)C8)ccn6)C5)CC4)CC3)no2)C(C)C)cc1 (stereo partly drawn) [compound 643, (2S,4R)-1-((2S)-2-(3-(4-(1-(4-((1r,3r)-3-((4-(3-(3-amino-6-(2-hydroxyphenyl)pyridazin-4-yl)-3,8-diazabicyclo[3.2.1]octan-8-yl)pyridin-2-yl)oxy)cyclobutoxy)piperidin-1-yl)ethyl)piperidin-1-yl)isoxazol-5-yl)-3-methylbutanoyl)-4-hydroxy-N-((S)-1-(4-(4-methylthiazol-5-yl)phenyl)ethyl)pyrrolidine-2-carboxamide]
DC50 [1]: < 2.5 nM
Dmax (BRM degradation, SW1573 cells, read-out: Dmax (% degraded)): > 75%

Cc1ncsc1-c1ccc(CNC(=O)[C@@H]2C[C@@H](O)CN2C(=O)[C@@H](c2cc(OCCOCCOCCOCCOc3cc(N4C5CCC4CN(c4cc(-c6ccccc6O)nnc4N)C5)ccn3)no2)C(C)C)cc1 [compound 30, (2S,4R)-1-[(2R)-2-(3-[[1-(4-[3-[3-amino-6-(2-hydroxyphenyl)pyridazin-4-yl]-3,8-diazabicyclo[3.2.1]octan-8-yl]pyridin-2-yl)-1,4,7,10-tetraoxadodecan-12-yl]oxy]-1,2-oxazol-5-yl)-3-methylbutanoyl]-4-hydroxy-N-[[4-(4-methyl-1,3-thiazol-5-yl)phenyl]methyl]pyrrolidine-2-carboxamide]
DC50 [1]: < 2.5 nM
Dmax [2]: > 75%

Cc1ncsc1-c1ccc([C@H](C)NC(=O)[C@@H]2C[C@@H](O)CN2C(=O)[C@@H](c2cc(OC[C@@H]3C[C@H]3c3ccc(O[C@H]4C[C@H](Oc5cc(N6C7CCC6CN(c6cc(-c8ccccc8O)nnc6N)C7)ccn5)C4)cn3)no2)C(C)C)cn1 [compound 480, (2S,4R)-1-((2R)-2-(3-(((1R,2R)-2-(5-((1r,3R)-3-((4-(3-(3-amino-6-(2-hydroxyphenyl)pyridazin-4-yl)-3,8-diazabicyclo[3.2.1]octan-8-yl)pyridin-2-yl)oxy)cyclobutoxy)pyridin-2-yl)cyclopropyl)methoxy)isoxazol-5-yl)-3-methylbutanoyl)-4-hydroxy-N-((S)-1-(6-(4-methylthiazol-5-yl)pyridin-3-yl)ethyl)pyrrolidine-2-carboxamide]
Dmax [3]: > 75%
DC50 [4]: < 2.5 nM

Cc1ncsc1-c1cc(F)c([C@H](C)NC(=O)[C@@H]2C[C@@H](O)CN2C(=O)[C@H](c2cc(OCCN3CCC(O[C@H]4C[C@H](Oc5cc(N6C7CCC6CN(c6cc(-c8ccccc8O)nnc6N)C7)ccn5)C4)CC3)no2)C(C)C)cn1 [compound 540, (2S,4R)-1-((2S)-2-(3-(2-(4-((1r,3S)-3-((4-(3-(3-amino-6-(2-hydroxyphenyl)pyridazin-4-yl)-3,8-diazabicyclo[3.2.1]octan-8-yl)pyridin-2-yl)oxy)cyclobutoxy)piperidin-1-yl)ethoxy)isoxazol-5-yl)-3-methylbutanoyl)-N-((S)-1-(4-fluoro-6-(4-methylthiazol-5-yl)pyridin-3-yl)ethyl)-4-hydroxypyrrolidine-2-carboxamide]
DC50 (BRM degradation, SW1573 cells, Table 2D, read-out: *DC50): > 30 nM

Cc1nccn1-c1ccc([C@H](C)NC(=O)[C@@H]2C[C@@H](O)CN2C(=O)[C@@H](c2cc(OCCN3CCN(CCOc4cc(N5C6CCC5CN(c5cc(-c7ccccc7O)nnc5N)C6)ccn4)CC3)no2)C(C)C)cc1 [compound 76, (2S,4R)-1-((2R)-2-(3-(2-(4-(2-((4-(3-(3-amino-6-(2-hydroxyphenyl)pyridazin-4-yl)-3,8-diazabicyclo[3.2.1]octan-8-yl)pyridin-2-yl)oxy)ethyl)piperazin-1-yl)ethoxy)isoxazol-5-yl)-3-methylbutanoyl)-4-hydroxy-N-((S)-1-(4-(2-methyl-1H-imidazol-1-yl)phenyl)ethyl)pyrrolidine-2-carboxamide]
DC50 [1]: < 2.5 nM
Dmax [2]: > 75%

Cc1ncsc1-c1ccc([C@H](C)NC(=O)[C@@H]2C[C@@H](O)CN2C(=O)[C@@H](c2cc(N3CCC(CC4CCN(C[C@H]5C[C@H](Oc6cc(N7C8CCC7CN(c7cc(-c9ccccc9O)nnc7N)C8)ccn6)C5)CC4)CC3)no2)C(C)C)cc1 [compound 473, (2S,4R)-1-((2R)-2-(3-(4-((1-(((1r,3r)-3-((4-(3-(3-amino-6-(2-hydroxyphenyl)pyridazin-4-yl)-3,8-diazabicyclo[3.2.1]octan-8-yl)pyridin-2-yl)oxy)cyclobutyl)methyl)piperidin-4-yl)methyl)piperidin-1-yl)isoxazol-5-yl)-3-methylbutanoyl)-4-hydroxy-N-((S)-1-(4-(4-methylthiazol-5-yl)phenyl)ethyl)pyrrolidine-2-carboxamide]
Dmax [3]: > 75%
DC50 [4]: < 2.5 nM
